Results reported in patent USRE46698E1, “Use of cyclohexanol derivatives as antimicrobial active compounds” (MERCK PATENT GMBH, priority 2011, dated 2018).

Assays:
[1] = Rancimate assay, antioxidative capacity (Example 1); conditions: 0.1% w/w in soya oil; 120° C.; input of air 201/h
Description: The antioxidative capacity of substances I-9, I-10 and I-2 is determined in the so-called Rancimate assay. The comparative substances used are 4-t-butyl-1-cyclohexanol and tocopherol. The positive standard employed is BHT. The measurement parameter is the time duration (induction time) of the increase in the conductivity of unstabilised soya oil on exposure to air at elevated temperature. The longer the induction time, the greater the stabilising or antioxidant action. The following boundary conditions were maintained: input of air 201/h; temperature 120° C. and sample concentrations of 0.1% w/w each in soya oil. For each test substance, a relative antioxidation-protection factor is determined, which corresponds to the ratio of the induction times with and without test substance: […]

Echerichia coli = experiment: Antimicrobial action, microbe count (Example 6); assay type: cell-based; conditions: H2O (12% of ethanol); for Δlog: t24 h
Description: (§1) For sample preparation, the substances being investigated are each dissolved or homogeneously dispersed in an amount of 1.0% in a water/ethanol mixture (12% of ethanol) and subsequently diluted with bacteria suspension in the ratio 1 to 2. P. acnes (ATCC 6919) is pre-incubated under anaerobic conditions for 48 h at 35° C. on RMC agar (Merck 1.05410). A bacteria suspension having an optical density (OD) of about 1.5 is subsequently prepared in RMC broth (Merck 1.05411, double-concentrated). 150 μl of freshly prepared sample and 100 μl of paraffin are added to 150 μl of bacteria suspension per well. The optical density is determined over the course of time at 37° C. using a Bioscreen C™ analyser compared with the negative control (=vehicle without test substance). Compared with the negative control, reduced optical densities confirm growth-inhibiting substance actions.
(§2) For sample preparation, the substances being investigated are each dissolved or homogeneously dispersed in an amount of 1.0% in a water/ethanol mixture (12% of ethanol) (=sample). A bacteria suspension of S. epidermidis (ATCC 12228) having an optical density of 1.0 in CASO broth (Merck 1.05459) is diluted 1:10000 with CASO broth. 500 μl of sample are added to 500 μl of bacteria suspension, and the mixture is incubated at 35° C. for 24 h. After the incubation, the test batches are diluted to −6 in 10 unit steps, and 0.1 ml of each is plated-out on CASO agar (Merck 1.05458) and incubated at 35° C. for 24 h.
(§3) In order to determine the initial microbe count, 0.1 ml of the bacteria suspension used are plated-out on CASO agar (Merck 1.05458) and incubated at 35° C. for 24 h.
(§4) The colonies are subsequently counted, and the microbe count per ml is determined compared with the negative control (12% of ethanol in water).
(§5) The procedure corresponds to that described in Examples 4 and 5 using the microorganisms shown below. The concentrations indicated are the final use concentrations. In order to prepare the stock solution, double the final concentration were prepared in the solvent indicated. This was subsequently diluted 1:2 with the corresponding microbe suspension. In the case of Aspergillus brasiliensis, the microbe count determination was exceptionally carried out after 48 h.

[2] = tested on: S. epidermidis (ATCC 12228); experiment: Growth inhibition by optical density, Bioscreen C (Example 3); assay type: cell-based, Staphylococcus epidermidis; conditions: 1.0% sample in water/ethanol (12% of ethanol) diluted 1 to 2 with bacteria suspension, 37° C.
Description: For sample preparation, the substances being investigated are each dissolved or homogeneously dispersed in an amount of 1.0% in a water/ethanol mixture (12% of ethanol) and subsequently diluted with bacteria suspension in the ratio 1 to 2. S. epidermidis (ATCC 12228) is pre-incubated under aerobic conditions for 24 h at 35° C. on CASO agar (Merck 1.05458). A bacteria suspension having an optical density (OD) of about 1.0 is subsequently prepared in CASO broth (Merck 1.05459, double-concentrated) and diluted again 1:10 in CASO broth. 150 μl of freshly prepared sample are added to 150 μl of bacteria suspension per well. The optical density is determined over the course of time at 37° C. using a Bioscreen C™ analyser compared with the negative control (=vehicle without test substance). Compared with the negative control, reduced optical densities confirm growth-inhibiting substance actions
(§6) Result as optical density of the bacteria suspension after an exposure time of 20 hours: […]

P. acnes (ATCC 6919) = experiment: Growth inhibition by optical density, Bioscreen C (Example 4); assay type: cell-based, Propionibacterium acnes; conditions: 1.0% sample in water/ethanol (12% of ethanol) diluted 1 to 2 with bacteria suspension; 37° C.; negative control 1.0
Description: as §1, §6

[3] = tested on: S. epidermidis (ATCC 12228); experiment: Microbe count determination, bacteriostatic or bactericidal action (Example 5); assay type: cell-based, Staphylococcus epidermidis; conditions: 24 h at 35° C.; for Final microbe count: 1.0% sample in 12% ethanol, 500 μl + 500 μl bacteria suspension, initial count 3.8 × 10^4, negative control 5.0 × 10^7; for Note: bacteriostatic or bactericidal action: S. epidermidis
Description: as §2, §3, §4

Candida albicans = experiment: Antimicrobial action, microbe count (Example 6); assay type: cell-based; conditions: for Δlog: t24 h
Description: as §2, §3, §4, §5

Aspergillus brasiliensis = experiment: Antimicrobial action, microbe count (Example 6); assay type: cell-based; conditions: H2O (12% of ethanol); for Δlog: count after 48 h; for Microbe count t24 h: count carried out after 48 h
Description: as §1, §2, §3, §4, §5

Corynebacterium xerosis = experiment: Antimicrobial action, microbe count (Example 6); assay type: cell-based; conditions: for Δlog: t24 h
Description: as §1, §2, §3, §4, §5

Propionibacterium acnes = experiment: Antimicrobial action, microbe count (Example 6); assay type: cell-based; conditions: for Δlog: t24 h
Description: as §1, §2, §3, §4, §5

Pseudomonas aeruginosa = experiment: Antimicrobial action, microbe count (Example 6); assay type: cell-based; conditions: conc. 0.5%, H2O (12% of ethanol), count t0 6.8 × 10^4
Description: as §1, §2, §3, §4, §5

Salmonella enterica = experiment: Antimicrobial action, microbe count (Example 6); assay type: cell-based; conditions: H2O (12% of ethanol); for Δlog: t24 h
Description: as §1, §2, §3, §4, §5

Serratia marcescens = experiment: Antimicrobial action, microbe count (Example 6); assay type: cell-based; conditions: conc. 0.5%, H2O (12% of ethanol), count t0 6.8 × 10^4
Description: as §1, §2, §3, §4, §5

Staphylococcus aureus = experiment: Antimicrobial action, microbe count (Example 6); assay type: cell-based; conditions: conc. 0.5%, H2O (12% of ethanol); for Δlog: t24 h
Description: as §1, §2, §3, §4, §5

[4] = tested on: Staphylococcus epidermidis; experiment: Antimicrobial action, microbe count (Example 6); assay type: cell-based; conditions: conc. 0.5%, H2O (12% of ethanol), count t0 3.4 × 10^4
Description: as §1, §2, §3, §4, §5

[5] = Densities and viscosities, Ubbelohde viscometer, to estimate spreadability (Example 10); assay type: physicochemical; conditions: 25° C.
Description: Measurement of the Dynamic Viscosities in Order to Estimate the Spreadability at 25° C. After measurement of the densities and kinematic viscosities using an Ubbelohde viscometer, the following dynamic viscosities arise: Since spreadabilities and viscosities of cosmetic emollients correlate well, good spreadabilities can be concluded from the viscosities determined.

Malassezia furfur = experiment: Antimicrobial action, microbe count (Example 6); assay type: cell-based; conditions: conc. 1.0%, H2O, count t0 4.0 × 10^2
Description: as §1, §2, §3, §4, §5

[6] = conc. 0.2%, count t0 6.3 × 10^4
[7] = 2nd experiment, negative control 0.65
[8] = conc. 0.5%, H2O (12% of ethanol), count t0 3.4 × 10^4
[9] = conc. 0.5%, H2O, count t0 3.8 × 10^5
[10] = conc. 0.5%, count t0 2.0 × 10^4
[11] = conc. 0.125%, H2O, count t0 1.0 × 10^6
[12] = conc. 0.5%, H2O (12% of ethanol), count t0 3.5 × 10^4
[13] = conc. 0.5%, count t0 4.6 × 10^4
[14] = conc. 0.5%, H2O (12% of ethanol), count t0 2.0 × 10^4
[15] = conc. 0.5%, count t0 6.0 × 10^4
[16] = conc. 1.0%, H2O (12% of ethanol), count t0 6.0 × 10^3
[17] = conc. 1.0%, count t0 8.0 × 10^2
[18] = conc. 0.5%, H2O, count t0 1.0 × 10^6
[19] = conc. 0.8%, count t0 6.3 × 10^4
[20] = conc. 1.0%, H2O, count t0 7.8 × 10^5
[21] = conc. 0.8%, count t0 1.3 × 10^4

## CC(C)(C)C1CCC(O)CC1 (stereo not drawn) [4-t-butyl-1-cyclohexanol, reference compound]
[1]
  Antioxidation-protection factor (ratio of the induction times with and without test substance): 1.05

## COC(=O)c1ccc(O)cc1 [Methylparaben, methylparaben, reference compound]
Echerichia coli; [6]
  Microbe count t24 h: 4.8 × 10^3
  Δlog: −1.12

## CCCCC(CC)COC(=O)C1CCCCC1O (stereo not drawn) [Substance I-9, 2-hydroxycyclohexanecarboxylic acid 2-ethylhexyl ester]
[1]
  Antioxidation-protection factor (ratio of the induction times with and without test substance): 1.12
[2]; [7]
  OD20h, optical density of the bacteria suspension after 20 hours: 0.30
P. acnes (ATCC 6919)
  OD20h, optical density of the bacteria suspension after 20 hours: 0.50
[3]
  Final microbe count: 2.0 × 10^3 CFU/ml
  Note: bacteriostatic or bactericidal action: bacteriostatic
Candida albicans; [8]
  Microbe count t24 h: 1.5 × 10^1
  Δlog: −3.36
Candida albicans; [9]
  Microbe count t24 h: 8.0 × 10^6
  Δlog: +1.32
Aspergillus brasiliensis; [10]
  Δlog: −1.40
  Microbe count t24 h: 8.0 × 10^2
Corynebacterium xerosis; [11]
  Microbe count t24 h: 5.0 × 10^6
  Δlog: +0.70
Corynebacterium xerosis; [12]
  Microbe count t24 h: 0
  Δlog: −4.54
Echerichia coli; [13]
  Microbe count t24 h: 3.8 × 10^2
  Δlog: −2.08
Propionibacterium acnes; [14]
  Microbe count t24 h: 8.0 × 10^2
  Δlog: −1.40
Pseudomonas aeruginosa
  Microbe count t24 h: 9.0 × 10^3
Pseudomonas aeruginosa; t24 h
  Δlog: −0.88
Salmonella enterica; [15]
  Microbe count t24 h: 1.8 × 10^4
  Δlog: −0.52
Serratia marcescens
  Microbe count t24 h: 9.0 × 10^3
Serratia marcescens; t24 h
  Δlog: −0.88
Staphylococcus aureus; count t0 4.2 × 10^4
  Microbe count t24 h: 1.4 × 10^2
  Δlog: −2.48
[4]
  Microbe count t24 h: 6.0 × 10^3
[4]; t24 h
  Δlog: −0.75
[5]
  Density: 0.9752 g/mL
  Dynamic viscosity (kinematic viscosity × density): 32.2 mPas
[5]; Ubbelohde viscometer
  Kinematic viscosity: 33.0 mm^2/s

## CC1CC(OC(=O)C2CCCCC2O)CC(C)(C)C1 (stereo not drawn) [Substance I-10, 2-hydroxycyclohexanecarboxylic acid 3,3,5-trimethylcyclohexyl ester]
[1]
  Antioxidation-protection factor (ratio of the induction times with and without test substance): 1.14
[2]; 1st experiment, negative control 0.80
  OD20h, optical density of the bacteria suspension after 20 hours: 0.30
P. acnes (ATCC 6919)
  OD20h, optical density of the bacteria suspension after 20 hours: 0.45
[3]
  Final microbe count: 2.0 × 10^3 CFU/ml
  Note: bacteriostatic or bactericidal action: bacteriostatic

## CCCCOC(=O)C1CCC(O)CC1 (stereo not drawn) [Substance I-20, 4-hydroxycyclohexanecarboxylic acid butyl ester]
[2]; [7]
  OD20h, optical density of the bacteria suspension after 20 hours: 0.20
P. acnes (ATCC 6919)
  OD20h, optical density of the bacteria suspension after 20 hours: 0.70
[3]
  Final microbe count: 0 CFU/ml
  Note: bacteriostatic or bactericidal action: bactericidal
Candida albicans; [9]
  Microbe count t24 h: 0
  Δlog: −5.58
Candida albicans; [16]
  Microbe count t24 h: 0
  Δlog: −3.78
Aspergillus brasiliensis; [17]
  Δlog: −0.60
  Microbe count t24 h: 2.0 × 10^2
Corynebacterium xerosis; [18]
  Microbe count t24 h: 0
  Δlog: −6.00
Echerichia coli; [19]
  Microbe count t24 h: 0
  Δlog: −4.80
Malassezia furfur
  Microbe count t24 h: 0
Malassezia furfur; t24 h
  Δlog: −2.60
Propionibacterium acnes; [20]
  Microbe count t24 h: 1.3 × 10^4
  Δlog: −1.78
Salmonella enterica; [21]
  Microbe count t24 h: 0
  Δlog: −4.11
Staphylococcus aureus; count t0 1.1 × 10^4
  Microbe count t24 h: 0
  Δlog: −4.04

## tocopherol [reference compound]
[1]
  Antioxidation-protection factor (ratio of the induction times with and without test substance): 1.00
